The test system of series [1] is BHK cells. Nature of the series: Cell viability by fluorescein diacetate / propidium iodide staining. The series is classed as cell-based, hamster. The conditions noted are these: 10 µM, 24 hours. The text has this: Fluorescein diacetate (FDA) is an apolar ester that could cross plasmamembrane. […] The polar compound propidium-iodide (PI) can not cross an intact plasmamembrane, so this is a good marker of necrotic cells. Once PI enters into the cell, this compound interact with nuclear DNA and give a fluorescent red light. Consequently, in the same cellular population, it is possible to discriminate live cells from dead cells, because the last group are PI-positive. In PI/PDA experiments, BHK cells were firstly treated with 10 µM neurounina-1 for 24 hours and then incubated for 3 minutes, at 22°C, in a PBS solution containing fluorescein diacetate (FDA; Sigma) and propidium iodide (PI, Calbiochem, San Diego, CA, U.S.A.), at the concentrations of di 36 µM e 7 µM, respectively. At the end of the incubation, cells were washed with PBS and observed at the microscope.

Series [2] concerns the target T1, NCX1 (Canis lupus familiaris, UniProt P23685).
T1 construct: expressed in transfected cells
As to the kind of experiment: Fura-2 AM single-cell microfluorimetry, BHK-NCX1 cells. The class given is cell-based. The conditions noted are these: 10 nM (Fig. 2). The protocol: (§1) The activity of NCX was established by means of three different subclones of baby hamsted kidney (BHK) cells that were stably transfected with one of each NCX isoforms, named BHK-NCX1, BHK-NCX2 and BHK-NCX3. These cell lines were grown on plastic dishes in a mix of DMEM and Ham's F12 media (1:1) (Gibco, Invitrogen, MI, Italy) supplemented with 5% fetal bovine serum, 100 U/ml penicillin, and 100 µg/ml streptomycin (Sigma, St. Louis, Missouri, USA). Cells were cultured in a humidified 5% CO2 atmosphere and at the temperature of 37°C.
(§2) NCX activity has been measured considering the variation of intracellular concentrations of Ca^2+ ions ([Ca^2+]i) due to its activation by means of single-cell microfluorimetry. […] In both cases, this probe will produce an emission at 510 nm; the ratio between the two emission relative to 340 and 380 excitation allow to quantify [Ca^2+]i in the time considering the calibration curve previously performed. […]
(§3) Briefly, BHK cells wild type and/or BHK trasnsfected with NCX mutants, grown on glass coverslips, were loaded with Fura-2 acetoxymethyl ester (Fura-2AM) (10 µM) for 30 minutes at 37°C in normal Krebs solution containing the following (in mM): 5.5 KCI, 160 NaCl, 1.2 MgCl2, 1.5 CaCl2, 10 glucose, and 10 Hepes-NaOH, pH 7.4. […] Fura-2 fluorescence intensity was measured every 3 seconds. […]

For series [3], the target named is T1, NCX1. As to the kind of experiment: 45Ca2+ radiotracer fluxes (efflux/influx) in BHK-NCX1 cells. The class given is cell-based. How it is done: as §1
(§4) The activity of the Na^+/Ca^2+ exchanger was measured by means of ^45Ca^2+ radiotracer variations in the cytoplasm of cells exposed to a protocol stimulating the forward or the reverse mode of the antiporter. The BHK cells expressing each mutated or non-mutated NCX isoform were cultured in 12-well dishes and incubated in 145 mM NaCl for 10 minutes and then in a medium containing only 145 mM N-Methyl D-glucamine (NMDG) and 10 µM of ^45Ca^2+. This rapid substitution of the medium from a high level of Na^+ to another one without Na^+ allow the ^45Ca^2+ influx (reverse mode). Before the medium substitution cells was incubated with 1 mM ouabain, a Na^+/K^+ pump inhibitor, and 10 µM monensin, a ionophore for extracellular Na^+. After 30 seconds incubation, cells were washed with an ice-cold solution containing 2 mM La^3+ to stop ^45Ca^2+ uptake. The medium was removed and cells were subsequently lysed with 0.1 N NaOH and aliquots were taken to determine radioactivity and protein content.
In order to measure NCX activity in the forward mode, cells were firstly loaded with ^45Ca^2+ and subsequently exposed to a chemical protocol to stimulate the efflux of the radiotracer in the extracellular medium. In particular, cells were loaded with ^45Ca^2+ by using a solution containing 1 µM ionomycin, 145 mM Na^+ and ^45Ca^2+. Next, cells were exposed to a Ca^2+-free solution containing 2 mM EGTA. One µM thapsigargin, a Ca^2+-ATPase inhibitor, was present in both solutions in order to prevent ^45Ca^2+ influx in intracellular organelles. After 60 second, cells were lysed with […] NaOH and aliquots were taken to determine cytoplasmatic radioactivity.
Cells were incubated for 30 minutes with different neurounina-1 concentrations.

In series [4] the target is T2, NCX3 (Rattus norvegicus, UniProt P70549).
T2 construct: expressed in transfected cells
As to the kind of experiment: 45Ca2+ radiotracer fluxes (efflux/influx) in BHK-NCX3 cells. The class given is cell-based. How it is done: as §1, §4
In order to measure NCX activity in the forward mode, cells were firstly loaded with ^45Ca^2+ and subsequently exposed to a chemical protocol to stimulate the efflux of the radiotracer in the extracellular medium. In particular, cells were loaded with ^45Ca^2+ by using a solution containing 1 µM ionomycin, 145 mM Na^+ and ^45Ca^2+. Next, cells were exposed to a Ca^2+-free solution containing 2 mM EGTA. […] After 60 second, cells were lysed with […] NaOH and aliquots were taken to determine cytoplasmatic radioactivity. […]

Series [5] has as its target T2, NCX3. Nature of the series: Fura-2 AM single-cell microfluorimetry, BHK-NCX3 cells. The class given is cell-based. The conditions noted are these: 10 nM (Fig. 2). How it is done: as §1, §2, §3
Series [6] deals with T3, NCX2 (Rattus norvegicus, UniProt P48768).
T3 construct: expressed in transfected cells
Nature of the series: Fura-2 AM single-cell microfluorimetry, BHK-NCX2 cells. The class given is cell-based. The conditions noted are these: 10 nM (Fig. 2). The protocol: as §1, §2, §3

[7] abbreviates: 45Ca2+ radiotracer, forward mode.
Where [8] appears, read: 45Ca2+ radiotracer, reverse mode.
The mark [9] stands for this setting: forward and reverse mode, patch clamp, Fura-2 microfluorimetry and 45Ca2+ fluxes (summary).

Entries after “also recorded” stand apart in the source; their conditions may differ.

The source of these data is patent EP2646421B1, “7-NITRO-5-PHENYL-1-(PYRROLIDIN-1-YLMETHYL)-1H-BENZO[E][1,4]DIAZEPIN-2(3H)-ONE AND OTHER BENZODIAZEPINE DERIVATIVES” (Pignataro, Giuseppe, priority 2010, dated 2012).

The EC50 is the concentration needed to bring the measured effect to its halfway point.

T1 sequence (P23685 33-970): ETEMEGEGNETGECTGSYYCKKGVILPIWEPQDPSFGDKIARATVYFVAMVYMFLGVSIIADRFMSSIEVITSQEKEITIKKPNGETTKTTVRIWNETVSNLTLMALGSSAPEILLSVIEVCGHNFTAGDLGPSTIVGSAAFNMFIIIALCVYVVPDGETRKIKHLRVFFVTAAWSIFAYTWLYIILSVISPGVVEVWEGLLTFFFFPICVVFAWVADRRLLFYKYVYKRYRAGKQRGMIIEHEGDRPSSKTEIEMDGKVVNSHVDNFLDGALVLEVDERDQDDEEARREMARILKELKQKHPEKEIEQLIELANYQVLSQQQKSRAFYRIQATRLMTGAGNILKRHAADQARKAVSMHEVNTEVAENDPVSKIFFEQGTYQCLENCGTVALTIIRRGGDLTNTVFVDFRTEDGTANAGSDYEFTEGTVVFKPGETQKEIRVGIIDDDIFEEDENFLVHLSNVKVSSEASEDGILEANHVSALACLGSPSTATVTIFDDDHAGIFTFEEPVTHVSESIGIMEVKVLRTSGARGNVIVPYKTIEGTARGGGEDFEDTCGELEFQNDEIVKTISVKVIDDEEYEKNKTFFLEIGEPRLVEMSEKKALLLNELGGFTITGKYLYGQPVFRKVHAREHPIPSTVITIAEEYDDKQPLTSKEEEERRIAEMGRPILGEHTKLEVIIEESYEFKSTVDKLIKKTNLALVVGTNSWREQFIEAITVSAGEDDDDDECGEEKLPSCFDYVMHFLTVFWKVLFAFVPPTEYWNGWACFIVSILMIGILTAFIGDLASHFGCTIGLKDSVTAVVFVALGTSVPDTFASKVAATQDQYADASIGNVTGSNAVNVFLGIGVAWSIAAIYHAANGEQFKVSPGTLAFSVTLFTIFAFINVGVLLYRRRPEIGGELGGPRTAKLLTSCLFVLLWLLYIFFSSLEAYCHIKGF
T2 sequence (P70549 31-927): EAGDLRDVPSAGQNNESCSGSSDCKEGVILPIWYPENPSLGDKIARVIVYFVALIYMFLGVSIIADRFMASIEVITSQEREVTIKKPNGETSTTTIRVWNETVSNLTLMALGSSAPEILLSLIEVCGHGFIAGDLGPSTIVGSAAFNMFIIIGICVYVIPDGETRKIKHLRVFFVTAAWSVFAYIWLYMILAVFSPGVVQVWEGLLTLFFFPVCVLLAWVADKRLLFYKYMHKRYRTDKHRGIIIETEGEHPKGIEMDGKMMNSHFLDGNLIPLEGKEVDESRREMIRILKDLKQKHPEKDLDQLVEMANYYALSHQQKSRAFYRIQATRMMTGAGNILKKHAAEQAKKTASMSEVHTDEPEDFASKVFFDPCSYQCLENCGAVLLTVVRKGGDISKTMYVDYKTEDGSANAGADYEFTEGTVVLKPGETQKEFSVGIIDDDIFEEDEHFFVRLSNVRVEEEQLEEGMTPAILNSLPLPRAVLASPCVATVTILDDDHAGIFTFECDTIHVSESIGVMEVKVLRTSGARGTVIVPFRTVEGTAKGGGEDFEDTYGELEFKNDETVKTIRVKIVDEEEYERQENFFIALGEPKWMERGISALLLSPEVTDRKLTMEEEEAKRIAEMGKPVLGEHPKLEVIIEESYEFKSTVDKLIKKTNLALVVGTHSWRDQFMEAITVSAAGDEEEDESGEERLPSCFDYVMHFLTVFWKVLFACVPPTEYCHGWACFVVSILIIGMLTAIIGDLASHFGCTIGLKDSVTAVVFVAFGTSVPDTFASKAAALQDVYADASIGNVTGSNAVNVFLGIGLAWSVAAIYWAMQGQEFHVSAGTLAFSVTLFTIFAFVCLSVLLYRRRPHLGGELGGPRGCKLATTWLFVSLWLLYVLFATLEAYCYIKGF
T3 sequence (P48768 21-921): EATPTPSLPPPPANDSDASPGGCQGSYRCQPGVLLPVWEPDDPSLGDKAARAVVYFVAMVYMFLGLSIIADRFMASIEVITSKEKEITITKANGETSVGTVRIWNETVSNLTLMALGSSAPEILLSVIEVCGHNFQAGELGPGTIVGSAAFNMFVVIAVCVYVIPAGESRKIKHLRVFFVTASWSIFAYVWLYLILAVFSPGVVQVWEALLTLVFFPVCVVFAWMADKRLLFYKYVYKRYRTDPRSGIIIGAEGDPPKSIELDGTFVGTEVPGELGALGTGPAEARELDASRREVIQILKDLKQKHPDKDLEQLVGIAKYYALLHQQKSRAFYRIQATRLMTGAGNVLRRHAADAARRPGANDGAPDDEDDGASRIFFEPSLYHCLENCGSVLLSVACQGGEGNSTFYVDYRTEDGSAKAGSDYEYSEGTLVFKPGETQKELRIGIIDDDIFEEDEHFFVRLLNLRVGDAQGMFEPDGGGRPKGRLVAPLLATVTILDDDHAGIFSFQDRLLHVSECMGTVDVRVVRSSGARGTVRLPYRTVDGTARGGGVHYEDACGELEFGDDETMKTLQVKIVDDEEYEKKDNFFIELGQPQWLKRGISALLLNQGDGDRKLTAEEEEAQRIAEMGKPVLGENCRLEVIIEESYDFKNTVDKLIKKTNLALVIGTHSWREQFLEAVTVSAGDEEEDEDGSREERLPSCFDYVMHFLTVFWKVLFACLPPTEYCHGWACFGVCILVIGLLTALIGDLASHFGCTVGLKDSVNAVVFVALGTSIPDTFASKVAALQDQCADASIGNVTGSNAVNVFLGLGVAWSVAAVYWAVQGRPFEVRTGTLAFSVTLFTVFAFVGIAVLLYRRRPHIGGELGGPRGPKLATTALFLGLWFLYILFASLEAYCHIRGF

As to `O=C1CN=C(c2ccccc2)c2cc([N+](=O)[O-])ccc2N1CN1CCCC1` [neurounina-1, 7-nitro-5-phenyl-1-(pyrrolidin-1-ylmethyl)-1H-benzo[e][1,4]diazepin-2(3H)-one], the cell viability result in series [1] was “did not show any toxic effect; also recorded: did not affect”. Besides, the “increased reverse mode activity of NCX1” value in series [2] is given as 30%. Besides, in series [3] (setting [7]), the “increase of forward mode of NCX1 activity” value is listed as 70%. For the same compound, the “increase of reverse mode NCX1 activity” value in series [3] (setting [8]) stood at 40%. Moreover, the EC50 in series [3] (EC50 NCX1, reverse mode, 45Ca2+ radiotracer, reverse mode) is 1.1 nM; in series [3] (EC50 for NCX1, forward mode, 45Ca2+ radiotracer, forward mode), 1.4 nM; in series [3] (EC50 su NCX1, from the functional assays (summary)), 1 to 2 nM. In series [3] (setting [9]), the NCX1 activity entry was “increases, in a dose-dependent manner”. In series [4] (setting [7]), the “activity of NCX3, forward mode” value was “did not significantly affect”. Also, the “activity of NCX3, reverse mode” value in series [4] (setting [8]) is listed as “did not affect”. Also, the NCX3 activity entry in series [4] (setting [9]) is given as “did not exert any effect”. Further, in series [5], the “activity of Na+/Ca2+ exchange in BHK cells expressing NCX3” value is given as “did not show any significant difference”. The “increased reverse mode activity of NCX2” value in series [6] came out at 40%.
